Data set [1] is described as follows: Thermodynamic aqueous solubility at pH 2 measured at 72 hrs by UPLC analysis. Format: physicochemical. Particulars: aqueous solution, read-out: Therm_solubility.
Data set [2] has as its system SARS-CoV-2. The data set can be described thus: Antiviral activity against SARS-CoV-2 Omicron BA.1 infected in human A549-hACE2-TMPRSS2 cells assessed as reduction in viral replication pre-incubated with compound followed by viral infection measured after 72 hrs by ELISA assay. Format: functional, organism-based. Particulars: Severe acute respiratory syndrome coronavirus 2, Omicron BA.1, A549-hACE2-TMPRSS2.

Data set [3] has as its system SARS-CoV-2. Kind of data set: Antiviral activity against SARS-CoV-2 Omicron BQ1.1 infected in human A549-hACE2-TMPRSS2 cells assessed as reduction in viral replication pre-incubated with compound followed by viral infection measured after 72 hrs by ELISA assay. Format: functional, organism-based. Particulars: Severe acute respiratory syndrome coronavirus 2, Omicron BQ1.1, A549-hACE2-TMPRSS2.

The subject of data set [4] is SARS-CoV-2. The data set can be described thus: Antiviral activity against […]-fused SARS-CoV-2 infected in human NHBE-T cells assessed as reduction in cell viability incubated for 1 day by Nano-Glo reagent based analysis. Format: functional, organism-based. Particulars: Severe acute respiratory syndrome coronavirus 2, NHBE-T, 24 h.
The subject of data set [5] is SARS-CoV-2. The data set can be described thus: Antiviral activity against SARS-CoV-2 Omicron BQ1.1 infected in human A549-hACE2-TMPRSS2 cells assessed as fold reduction in viral replication pre-incubated with compound followed by viral infection measured after 72 hrs by ELISA assay relative to SARS-CoV-2 WA1. In kind it is functional, Severe acute respiratory syndrome coronavirus 2.

Data set [6] can be described thus: Drug metabolism in human A549-ACE2 cells assessed as Nucleotide triphosphate metabolite formation at 10 uM measured after 48 hrs by LC-MS analysis. In kind it is ADME, cell-based. Particulars: a549-ace2, 48 h.
Data set [7] can be described thus: Cytotoxicity against human MT4 cells assessed as reduction in cell growth measured after 5 days by CellTiter-Glo assay. Particulars: MT4 cells, time 5 day. Format: toxicity, cell-based. On the technique in general: In ATP-based viability assays light output follows the ATP content of the culture.
Data set [8] concerns MRC5. The data set can be described thus: Cytotoxicity against human MRC5 cells assessed as reduction in cell growth measured after 5 days by CellTiter-Glo assay. In kind it is toxicity, cell-based. Particulars: mrc5, 120 h, time 5 day.
Data set [9] relates to SARS-CoV-2. Kind of data set: Antiviral activity against SARS-CoV-2 Omicron BA.2.12.1 infected in human A549-hACE2-TMPRSS2 cells assessed as reduction in viral replication pre-incubated with compound followed by viral infection measured after 72 hrs by ELISA assay. Particulars: Severe acute respiratory syndrome coronavirus 2, Omicron BA.2.12.1, A549-hACE2-TMPRSS2. Format: functional, organism-based. In general terms: In an ELISA, binding on a coated surface is turned into a signal by an enzyme label.

Data set [10] has as its system SARS-CoV-2. Kind of data set: Antiviral activity against SARS-CoV-2 Omicron BF.5 infected in human A549-hACE2-TMPRSS2 cells assessed as fold reduction in viral replication pre-incubated with compound followed by viral infection measured after 72 hrs by ELISA assay relative to SARS-CoV-2 WA1. Format: functional, Severe acute respiratory syndrome coronavirus 2.
Data set [11] has as its system SARS-CoV-2. Kind of data set: Antiviral activity against SARS-CoV-2 Omicron BF.5 infected in human A549-hACE2-TMPRSS2 cells assessed as reduction in viral replication pre-incubated with compound followed by viral infection measured after 72 hrs by ELISA assay. Format: functional, organism-based. Particulars: Severe acute respiratory syndrome coronavirus 2, Omicron BF.5, A549-hACE2-TMPRSS2.

Data set [12] deals with SARS-CoV-2. Kind of data set: Antiviral activity against SARS-CoV-2 Omicron XBB infected in human A549-hACE2-TMPRSS2 cells assessed as reduction in viral replication pre-incubated with compound followed by viral infection measured after 72 hrs by ELISA assay. In kind it is functional, organism-based. Particulars: Severe acute respiratory syndrome coronavirus 2, Omicron XBB.

Data set [13] deals with SARS-CoV-2. The data set can be described thus: Antiviral activity against SARS-CoV-2 Delta (B.1.617.2) infected in human A549-hACE2-TMPRSS2 cells assessed as reduction in viral replication pre-incubated with compound followed by viral infection measured after 48 hrs by ELISA assay. In kind it is functional, organism-based. Particulars: Severe acute respiratory syndrome coronavirus 2, Delta (B.1.617.2).

Data set [14] relates to SARS-CoV-2. Kind of data set: Antiviral activity against SARS-CoV-2 Omicron BA.2 infected in human A549-hACE2-TMPRSS2 cells assessed as reduction in viral replication pre-incubated with compound followed by viral infection measured after 72 hrs by ELISA assay. Particulars: Severe acute respiratory syndrome coronavirus 2, Omicron BA.2, A549-hACE2-TMPRSS2. Format: functional, organism-based.

Data set [15] can be described thus: Drug metabolism in human NHBE-T cells assessed as fold increase in Nucleotide triphosphate metabolite formation at 10 uM measured after 48 hrs by LC-MS analysis. Format: ADME, cell-based.
A short description of data set [16]: Cytotoxicity against human A549-ACE2 cells assessed as reduction in cell growth measured after 48 hrs by CellTiter-Glo assay. In kind it is toxicity, cell-based. Particulars: for CC50 at 48 h: A549-ACE2 cells.
The test system of data set [17] is SARS-CoV-2. Kind of data set: Antiviral activity against SARS-CoV-2 Omicron BA.2.12.1 infected in human A549-hACE2-TMPRSS2 cells assessed as fold reduction in viral replication pre-incubated with compound followed by viral infection measured after 72 hrs by ELISA assay relative to SARS-CoV-2 WA1. In kind it is functional, Severe acute respiratory syndrome coronavirus 2.

In data set [18] the test system is SARS-CoV-2. The data set can be described thus: Antiviral activity against SARS-CoV-2 Omicron BA.2 infected in human A549-hACE2-TMPRSS2 cells assessed as fold reduction in viral replication pre-incubated with compound followed by viral infection measured after 72 hrs by ELISA assay relative to SARS-CoV-2 WA1. In kind it is functional, Severe acute respiratory syndrome coronavirus 2.

Data set [19] has as its system SARS-CoV-2. The data set can be described thus: Antiviral activity against SARS-CoV-2 Omicron BA.4.6 infected in human A549-hACE2-TMPRSS2 cells assessed as reduction in viral replication pre-incubated with compound followed by viral infection measured after 72 hrs by ELISA assay. Format: functional, organism-based. Particulars: Severe acute respiratory syndrome coronavirus 2, Omicron BA.4.6, A549-hACE2-TMPRSS2.

Data set [20] relates to SARS-CoV-2. Kind of data set: Antiviral activity against Nluc-fused SARS-CoV-2 infected in human A549-ACE2 cells assessed as reduction in cell viability incubated for 2 days by Nano-Glo reagent based analysis. Particulars: Severe acute respiratory syndrome coronavirus 2, A549-ACE2, 48 h. Format: functional, organism-based.
In data set [21] the test system is SARS-CoV-2. The data set can be described thus: Antiviral activity against SARS-CoV-2 Omicron BA.2.75 infected in human A549-hACE2-TMPRSS2 cells assessed as reduction in viral replication pre-incubated with compound followed by viral infection measured after 72 hrs by ELISA assay. Particulars: Severe acute respiratory syndrome coronavirus 2, Omicron BA.2.75, A549-hACE2-TMPRSS2. Format: functional, organism-based.

For data set [22], the system named is SARS-CoV-2. Kind of data set: Antiviral activity against SARS-CoV-2 Omicron BA.5 infected in human A549-hACE2-TMPRSS2 cells assessed as reduction in viral replication pre-incubated with compound followed by viral infection measured after 72 hrs by ELISA assay. Format: functional, organism-based. Particulars: Severe acute respiratory syndrome coronavirus 2, Omicron BA.5, A549-hACE2-TMPRSS2.

The test system of data set [23] is SARS-CoV-2. The data set can be described thus: Antiviral activity against SARS-CoV-2 Omicron BA.4 infected in human A549-hACE2-TMPRSS2 cells assessed as fold reduction in viral replication pre-incubated with compound followed by viral infection measured after 72 hrs by ELISA assay relative to SARS-CoV-2 WA1. In kind it is functional, Severe acute respiratory syndrome coronavirus 2.

Data set [24] relates to SARS-CoV-2. The data set can be described thus: Antiviral activity against SARS-CoV-2 Omicron BA.4 infected in human A549-hACE2-TMPRSS2 cells assessed as reduction in viral replication pre-incubated with compound followed by viral infection measured after 72 hrs by ELISA assay. Particulars: Severe acute respiratory syndrome coronavirus 2, Omicron BA.4, A549-hACE2-TMPRSS2. In kind it is functional, organism-based.

Data set [25] relates to SARS-CoV-2. Kind of data set: Antiviral activity against SARS-CoV-2 WA1 infected in human A549-hACE2-TMPRSS2 cells assessed as reduction in viral replication pre-incubated with compound followed by viral infection measured after 72 hrs by ELISA assay. Format: functional, organism-based. Particulars: Severe acute respiratory syndrome coronavirus 2, WA1, A549-hACE2-TMPRSS2.

As for `CC(C)C(=O)OC[C@H]1O[C@@](C#N)(c2ccc3c(N)ncnn23)[C@H](O)[C@@H]1O` [OBELDESIVIR], in data set [1], the solubility thermodynamic at 72 h is at least 40 mg/mL. The EC50 was 650 nM in data set [2]; 2440 nM in data set [3]; 430 nM in data set [4]; 440 nM in data set [9]; 3130 nM in data set [11]; 2030 nM in data set [12]. Moreover, the EC50 was determined as 740 nM in data set [13]; 710 nM in data set [14]; 2450 nM in [19]; 1900 nM in [20]; 690 nM in data set [21]; 1300 nM in [22]. For the same compound, the EC50 is 400 nM in data set [24] and 1010 nM in data set [25]. For the same compound, the “fold change (FC)” value in data set [5] is listed as 1.33; in data set [10], 0.8; in [17], 0.29; in data set [18] it was 0.37; in data set [23], 0.26. The Drug metabolism entry in data set [6] and in [15] was “Metabolite_Detected” in each case. The CC50 at 120 h in data set [7] is over 50000 nM. For the same compound, in data set [8], the CC50 is over 44000 nM. The CC50 at 48 h in [16] was over 50000 nM.

With `CCC(CC)COC(=O)[C@H](C)N[P@](=O)(OC[C@H]1O[C@@](C#N)(c2ccc3c(N)ncnn23)[C@H](O)[C@@H]1O)Oc1ccccc1`, the EC50 in data set [2] amounted to 40 nM; in [3], 90 nM; in data set [4], 40 nM; in data set [9], 30 nM; in data set [11] it was 130 nM; in [12], 90 nM. Also, the EC50 worked out at 70 nM in data set [13]; 20 nM in data set [14]; 90 nM in [19]; 60 nM in data set [20]; 30 nM in data set [21]; 110 nM in [22]. Also, the EC50 in data set [24] is 20 nM; in data set [25], 80 nM. Besides, the “fold change (FC)” value in [5] turned out to be 1.12; in data set [10], 0.94; in [17], 0.2; in [18], 0.23; in data set [23], 0.15. The CC50 at 120 h in data set [7] is 1700 nM. In addition, the half-maximal cytotoxic concentration (CC50) in data set [16] (a549-ace2, 48 h) stood at 22900 nM.

Consider `N#C[C@@]1(c2ccc3c(N)ncnn23)O[C@H](CO)[C@@H](O)[C@H]1O` [GS-441524], for which the solubility thermodynamic at 72 h in data set [1] was at most 1 mg/mL. Moreover, the EC50 was 2660 nM in data set [2]; 8770 nM in data set [3]; 3250 nM in data set [4]; 1790 nM in data set [9]; 7780 nM in data set [11]; 6300 nM in [12]. The EC50 in data set [13] was 3260 nM; in [14] it was 1330 nM; in data set [19] it was 5400 nM; in data set [20] it was 2490 nM; in data set [21], 2580 nM; in [22] it was 4800 nM. The EC50 in data set [24] was 1630 nM; in data set [25], 4450 nM. Besides, the entries for the “fold change (FC)” value in [5] and in data set [15] were 1.33 and over 3, respectively. The Drug metabolism result in data set [6] and in [15] was “Metabolite_Detected” each time. Besides, the CC50 at 120 h in data set [7] was found to be 69000 nM. Also, the CC50 in data set [8] was over 89000 nM. Besides, in data set [16], the CC50 at 48 h is over 50000 nM.

As a reminder, the EC50 is the concentration at which the effect is half-maximal. The CC50 is the concentration giving 50% cytotoxicity.

The values above are taken from ChEMBL document CHEMBL5321279 (J Med Chem, 2023).
